According to ChEMBL document CHEMBL5046285, “Probing Fluorinated Motifs onto Dual AChE-MAO B Inhibitors: Rational Design, Synthesis, Biological Evaluation, and Early-ADME Studies” (J Med Chem, 2022):
Values after ≈ are worked out from the molar mass of the structure shown.

What was measured:
[1] = Kinetic aqueous solubility of the compound in PBS incubated for 2 hrs under mild shaking at pH 7.4 by UV- vis spectrophotometric analysis; type: physicochemical; conditions: read-out: Kinetic_solubility
[2] = target: Cholinesterase (Equus caballus) (UniProt P81908); experiment: Inhibition of horse serum BChE at 10 uM by Ellman's spectrophotometric assay; type: cell-free
[3] = target: T1, Amine oxidase [flavin-containing] B (Homo sapiens, UniProt P27338); experiment: Inhibition of human recombinant MAO-B expressed in supersomes assessed as inhibition of 4-hydroxyquinoline formation using kynuramine as substrate by spectrophotometric method
T1 sequence (P27338 whole entry): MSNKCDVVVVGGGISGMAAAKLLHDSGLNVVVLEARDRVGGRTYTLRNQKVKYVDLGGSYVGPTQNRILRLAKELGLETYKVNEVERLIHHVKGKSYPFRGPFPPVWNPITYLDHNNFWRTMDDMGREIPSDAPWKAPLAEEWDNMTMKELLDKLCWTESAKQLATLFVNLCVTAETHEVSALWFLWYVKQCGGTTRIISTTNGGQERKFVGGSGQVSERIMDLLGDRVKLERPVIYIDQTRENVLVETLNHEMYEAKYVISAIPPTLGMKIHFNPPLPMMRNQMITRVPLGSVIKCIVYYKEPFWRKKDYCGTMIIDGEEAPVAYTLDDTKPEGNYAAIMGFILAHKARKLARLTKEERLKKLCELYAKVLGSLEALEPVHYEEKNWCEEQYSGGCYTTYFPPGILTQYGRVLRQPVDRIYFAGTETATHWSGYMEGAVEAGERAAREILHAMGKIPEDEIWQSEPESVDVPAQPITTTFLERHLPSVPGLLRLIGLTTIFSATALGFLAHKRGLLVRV

[4] = target: T1, Amine oxidase [flavin-containing] B
Description: Inhibition of human recombinant MAO-B expressed in supersomes assessed as inhibition of 4-hydroxyquinoline formation using kynuramine as substrate by spectrofluorimetric analysis

Acetylcholinesterase = Acetylcholinesterase (Homo sapiens, UniProt P22303)
Description: Inhibition of human recombinant AChE by Ellman's spectrophotometric assay

[5] = Chromatographic hydrophobicity index of the compound in ammonium acetate buffer at pH 7.4 by RP-HPLC analysis; type: physicochemical
[6] = target: T2, Amine oxidase [flavin-containing] A (Homo sapiens, UniProt P21397)
T2 sequence (P21397 whole entry): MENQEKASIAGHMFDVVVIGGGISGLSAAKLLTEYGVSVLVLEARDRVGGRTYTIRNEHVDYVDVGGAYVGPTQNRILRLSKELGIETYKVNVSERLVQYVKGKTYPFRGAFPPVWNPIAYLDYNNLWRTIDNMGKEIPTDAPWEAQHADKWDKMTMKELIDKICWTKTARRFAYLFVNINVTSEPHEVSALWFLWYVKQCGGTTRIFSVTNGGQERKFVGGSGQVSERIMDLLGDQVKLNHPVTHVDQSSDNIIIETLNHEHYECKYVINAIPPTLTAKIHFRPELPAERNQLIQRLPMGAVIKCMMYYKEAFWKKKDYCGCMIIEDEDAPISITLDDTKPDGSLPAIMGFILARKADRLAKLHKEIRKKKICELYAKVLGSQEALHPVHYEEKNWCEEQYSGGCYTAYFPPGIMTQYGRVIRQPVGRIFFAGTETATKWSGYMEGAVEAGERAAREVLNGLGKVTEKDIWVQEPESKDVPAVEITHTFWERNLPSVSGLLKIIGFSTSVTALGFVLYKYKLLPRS
Description: Inhibition of human recombinant MAO-A expressed in supersomes assessed as inhibition of 4-hydroxyquinoline formation using kynuramine as substrate by spectrofluorimetric analysis

MAO-A = target: T3, MAO-A (Homo sapiens, UniProt P21397); experiment: in vitro; conditions: recombinant MAO-A expressed in supersomes, probe kynuramine
T3 sequence (P21397 whole entry): T2 sequence (P21397 whole entry)

Cholinesterase = Cholinesterase (Equus caballus, UniProt P81908)
Description: Inhibition of horse serum BChE by Ellman's spectrophotometric assay

Homo sapiens = species: Homo sapiens; experiment: Selectivity for human recombinant MAO-B expressed in supersomes over human recombinant MAO-A expressed in supersomes
[7] = Intrinsic clearance in mouse liver microsomes at 0.5 uM incubated upto 30 mins in presence of NADPH measured per mg protein by LC/MS/MS analysis; type: ADME, Microsome; conditions: read-out: CLH
[8] = 1-Octanol/PBS buffer distribution coefficient, log D of the compound at 1 uM measured after 24 hrs at pH 7.4 by shake flask based HPLC-ES-MS/MS analysis; type: physicochemical
[9] = Microsomal stability in mouse liver microsomes assessed as half life at 0.5 uM incubated upto 30 mins in presence of NADPH by LC/MS/MS analysis; type: ADME, Microsome
SH-SY5Y = experiment: Cytotoxicity against human SH-SY5Y cells assessed as reduction in cell viability at 1 to 100 uM incubated for 4 hrs by CellTiter-Glo luminescence assay; type: toxicity, cell-based; conditions: dose 1-100 µM
[10] = Effective permeability of the compound in PBS buffer at pH 7.4 by PAMPA-BBB assay; type: ADME; conditions: read-out: Peff
HepG2 = experiment: Cytotoxicity against human HepG2 cells assessed as reduction in cell viability at 1 to 100 uM incubated for 4 hrs by CellTiter-Glo luminescence assay; type: toxicity, cell-based; conditions: hepg2, 4 h, dose 1-100 µM
[11] = Microsomal stability in human liver microsomes assessed as half life at 0.5 uM incubated upto 60 mins in presence of NADPH by LC/MS/MS analysis; type: ADME, Microsome
Cytochrome P450 3A4 = Cytochrome P450 3A4 (Homo sapiens, UniProt P08684); experiment: Inhibition of human recombinant CYP3A4 expressed in baculosomes by fluorescent homogenous assay; type: ADME
[12] = Intrinsic clearance in human liver microsomes at 0.5 uM incubated upto 60 mins in presence of NADPH measured per mg protein by LC/MS/MS analysis; type: ADME, Microsome; conditions: read-out: CLH
[13] = Efflux ratio of apparent permeability across basolateral to apical side over apical to basolateral side in human Caco-2 cells; type: ADME, cell-based
[14] = Apparent permeability across basolateral to apical side in human Caco-2 cells at 10 uM incubated for 60 mins by HPLC-MS/MS method; type: ADME, cell-based
[15] = Apparent permeability across apical to basolateral side in human Caco-2 cells at 10 uM incubated for 60 mins by HPLC-MS/MS method; type: ADME, cell-based
[16] = target: T1, Amine oxidase [flavin-containing] B; experiment: Reversible inhibition of human recombinant MAO-B expressed in supersomes using kynuramine as substrate at 10 nM co-incubated with enzyme and measured over 6 hrs by spectrophotometric method; conditions: 0.01 µM
Albumin = Albumin (Homo sapiens, UniProt P02768); experiment: Binding affinity to human serum albumin assessed as dissociation […] constant by surface plasmon resonance assay; type: ADME, cell-free
Chain of Albumin (P02768 whole entry): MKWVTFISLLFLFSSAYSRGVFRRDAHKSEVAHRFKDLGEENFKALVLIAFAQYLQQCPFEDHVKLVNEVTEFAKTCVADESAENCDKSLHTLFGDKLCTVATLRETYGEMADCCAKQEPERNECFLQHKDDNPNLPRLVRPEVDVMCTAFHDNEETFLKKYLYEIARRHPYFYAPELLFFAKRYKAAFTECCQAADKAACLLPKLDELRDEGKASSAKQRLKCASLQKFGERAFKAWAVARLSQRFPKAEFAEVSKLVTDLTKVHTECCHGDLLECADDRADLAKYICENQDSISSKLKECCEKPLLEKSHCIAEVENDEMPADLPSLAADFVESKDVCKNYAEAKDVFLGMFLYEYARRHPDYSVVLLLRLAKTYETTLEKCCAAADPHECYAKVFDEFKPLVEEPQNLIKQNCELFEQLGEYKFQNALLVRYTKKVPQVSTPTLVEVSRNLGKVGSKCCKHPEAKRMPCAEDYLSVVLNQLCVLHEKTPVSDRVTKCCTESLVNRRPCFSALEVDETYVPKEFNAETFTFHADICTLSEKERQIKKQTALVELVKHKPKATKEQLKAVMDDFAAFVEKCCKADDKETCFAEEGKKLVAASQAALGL

Chain of Cytochrome P450 3A4 (P08684 whole entry): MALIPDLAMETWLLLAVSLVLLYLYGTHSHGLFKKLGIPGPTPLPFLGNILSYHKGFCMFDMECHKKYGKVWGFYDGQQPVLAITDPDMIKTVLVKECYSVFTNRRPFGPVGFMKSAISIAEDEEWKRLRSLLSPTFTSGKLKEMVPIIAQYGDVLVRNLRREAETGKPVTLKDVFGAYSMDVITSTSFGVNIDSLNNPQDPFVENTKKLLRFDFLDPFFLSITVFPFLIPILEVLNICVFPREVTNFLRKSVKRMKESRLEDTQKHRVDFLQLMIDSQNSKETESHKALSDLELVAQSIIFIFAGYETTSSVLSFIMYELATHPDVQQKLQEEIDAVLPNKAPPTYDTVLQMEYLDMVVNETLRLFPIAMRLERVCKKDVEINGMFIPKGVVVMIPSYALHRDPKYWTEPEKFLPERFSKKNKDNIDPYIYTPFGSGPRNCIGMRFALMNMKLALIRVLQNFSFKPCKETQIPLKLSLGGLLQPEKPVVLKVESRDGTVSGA
Chain of Acetylcholinesterase (P22303 whole entry): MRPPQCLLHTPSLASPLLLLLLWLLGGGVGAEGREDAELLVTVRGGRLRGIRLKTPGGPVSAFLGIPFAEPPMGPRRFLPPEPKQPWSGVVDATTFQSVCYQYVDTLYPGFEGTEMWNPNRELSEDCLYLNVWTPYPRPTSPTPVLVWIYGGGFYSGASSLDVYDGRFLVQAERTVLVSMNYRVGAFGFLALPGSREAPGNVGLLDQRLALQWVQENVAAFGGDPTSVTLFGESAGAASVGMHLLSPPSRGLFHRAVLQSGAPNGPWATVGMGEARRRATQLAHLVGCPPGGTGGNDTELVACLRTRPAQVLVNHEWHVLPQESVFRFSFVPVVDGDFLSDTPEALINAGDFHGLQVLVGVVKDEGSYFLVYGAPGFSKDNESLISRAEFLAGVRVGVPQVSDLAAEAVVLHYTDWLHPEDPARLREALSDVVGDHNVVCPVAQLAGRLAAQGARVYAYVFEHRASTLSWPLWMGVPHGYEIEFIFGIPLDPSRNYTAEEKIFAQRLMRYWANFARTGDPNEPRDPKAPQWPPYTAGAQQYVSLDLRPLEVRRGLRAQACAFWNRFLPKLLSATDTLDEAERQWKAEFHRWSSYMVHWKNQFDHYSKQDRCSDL
Chain of Cholinesterase (Equus caballus) (P81908 whole entry): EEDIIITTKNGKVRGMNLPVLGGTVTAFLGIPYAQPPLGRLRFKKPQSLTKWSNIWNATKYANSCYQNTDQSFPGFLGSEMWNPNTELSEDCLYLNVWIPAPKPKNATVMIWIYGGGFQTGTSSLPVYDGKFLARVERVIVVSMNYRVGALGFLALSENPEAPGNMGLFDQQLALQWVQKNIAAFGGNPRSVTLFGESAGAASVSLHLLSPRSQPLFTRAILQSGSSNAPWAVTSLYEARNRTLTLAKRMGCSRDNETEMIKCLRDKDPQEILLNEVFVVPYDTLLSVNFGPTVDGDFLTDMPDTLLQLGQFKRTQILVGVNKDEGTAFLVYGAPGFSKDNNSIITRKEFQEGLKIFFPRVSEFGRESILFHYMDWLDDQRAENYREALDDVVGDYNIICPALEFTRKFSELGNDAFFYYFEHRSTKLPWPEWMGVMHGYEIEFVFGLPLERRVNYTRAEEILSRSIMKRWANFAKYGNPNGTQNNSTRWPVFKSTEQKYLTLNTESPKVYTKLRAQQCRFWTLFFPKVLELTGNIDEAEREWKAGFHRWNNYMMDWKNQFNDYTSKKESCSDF
Chain of Cholinesterase (P81908 whole entry): as above

Row | SMILES | solubility kinetic at 2 h [1] [µM] | IC50 [4] [nM] | IC50 (Acetylcholinesterase) [nM] | CHI [5] | IC50 [6] [nM] | IC50 (Cholinesterase) [nM] | microsomal CLint at 0.5 µM [7] [µL/min/mg] | logD at 24 h, 1 µM [8] | half-life at 0.5 µM [9] [min] | Papp [10] [×10⁻⁶ cm/s] | other results
1 | Cc1c(C)c2ccc(OCCCN(Cc3cccc(F)c3)C(C)C)cc2oc1=O | 13 (≈ 5.17 µg/mL) | 350 | 910 | > 100 | 8100 |  |  |  |  |  | inhibition [2]: 22%; inhibition (INH) [3]: Active
2 | CN(Cc1ccccc1)Cc1ccc(COc2ccc3c(C(F)F)cc(=O)oc3c2)cc1 | 0.4 (≈ 0.174 µg/mL) | 130 | 560 | > 100 |  | 430 | 142 | 4.8 | 9.8 |  | inhibition at 10 µM (MAO-A): 17%; Selectivity Index (Homo sapiens): > 73
3 | Cc1c(C)c2ccc(OCC3CCCN(CCCO)C3)cc2oc1=O (racemic) | > 500 |  | 1100 | 48.8 |  |  | 15.1 | 1.15 | 92.4 | 7.2 | Activity (SH-SY5Y): Non-Toxic; Activity (HepG2): Non-Toxic
4 | Cc1c(C)c2ccc(OCC3CCN(Cc4cccc(F)c4)CC3)cc2oc1=O | 11 (≈ 4.35 µg/mL) | 140 | 460 | > 100 | 2500 | 2900 | 225 | 3.43 | 6.2 |  | inhibition (INH) [3]: Active
5 | Cc1c(C)c2ccc(OCC3CCN(CCCC(F)F)CC3)cc2oc1=O | 448 (≈ 170 µg/mL) | 530 | 1200 | 73.4 |  |  | 116 | 2.34 | 11.9 | 10.8 | half-life at 0.5 µM [11]: 98.9 min; inhibition [2]: 8%; IC50 (Cytochrome P450 3A4): 800 nM; inhibition at 10 µM (MAO-A): 40%; microsomal CLint at 0.5 µM [12]: 14.1 µL/min/mg; efflux ratio [13]: 1; Papp B→A at 1 h, 10 µM [14]: 16 ×10⁻⁶ cm/s; Papp A→B at 1 h, 10 µM [15]: 17 ×10⁻⁶ cm/s
6 | Cc1c(C)c2ccc(OCC3CCCN(Cc4ccccc4)C3)cc2oc1=O (racemic) | 33 (≈ 12.5 µg/mL) |  |  | > 100 |  |  | 265 | 3.65 | 5.3 |  | 
7 | Cc1c(C)c2ccc(OCC3CCN(Cc4cccc(C(F)(F)F)c4)CC3)cc2oc1=O | 0.9 (≈ 0.401 µg/mL) | 130 | 470 | > 100 | 1400 |  | 146 | 5.05 | 9.5 |  | inhibition [2]: 35%
8 | CN(CCCO)Cc1ccc(COc2ccc3c(CO)cc(=O)oc3c2)cc1 | > 500 | 420 | 2200 | 35.6 |  |  |  |  |  | 3.1 | inhibition [2]: 27%; inhibition at 10 µM (MAO-A): 13%
9 | Cc1c(C)c2ccc(OCC3CCCN(CCCC(F)F)C3)cc2oc1=O (racemic) | 349 (≈ 132 µg/mL) | 260 | 480 | 83.4 | 11000 |  | 78.1 | 2.67 | 17.8 | 13.3 | inhibition [2]: 22%; IC50 (Cytochrome P450 3A4): > 10000 nM
10 | Cc1c(C)c2ccc(OCc3ccc(CN(C)CCCC(F)F)cc3)cc2oc1=O | 13 (≈ 5.4 µg/mL) | 160 | 1500 | > 100 |  | 4100 |  | 3.78 |  |  | inhibition at 10 µM (MAO-A): 45%
11 | Cc1c(C)c2ccc(OCc3cccc(CN(C)CCCC(F)F)c3)cc2oc1=O | 13 (≈ 5.4 µg/mL) | 560 | 1700 | > 100 | 4200 | 1600 | 289 | 3.65 | 4.8 |  | IC50 (Cytochrome P450 3A4): 600 nM
12 | Cc1c(C)c2ccc(OCC3CCCN(Cc4cccc(F)c4)C3)cc2oc1=O (racemic) | 20 (≈ 7.91 µg/mL) | 12 | 1200 | > 100 | 2000 | 2000 | 210 | 4.38 | 6.6 | 10 | 
13 | C[C@H](NCc1ccc(OCc2cccc(F)c2)cc1)C(N)=O [SAFINAMIDE] |  |  |  |  |  |  |  |  |  |  | inhibition (INH) [16]: Active
14 | CN(Cc1ccccc1)Cc1ccc(COc2ccc3c(CO)cc(=O)oc3c2)cc1 |  |  |  | 99.3 |  |  | 43.9 | 3.81 | 31.7 |  | 
15 | CCN(CCCOc1ccc2c(C)c(C)c(=O)oc2c1)Cc1cccc(F)c1 | 18 (≈ 6.9 µg/mL) | 73 | 1200 | > 100 | 7800 | 4300 | 260 |  | 5.3 |  | 
16 | Cc1c(C)c2ccc(OCC3CCN(Cc4ccccc4)CC3)cc2oc1=O | 57 (≈ 21.5 µg/mL) |  | 380 | 99.7 |  |  | 206 | 3.4 | 6.7 |  | efflux ratio [13]: 1.6; Papp B→A at 1 h, 10 µM [14]: 12 ×10⁻⁶ cm/s; Papp A→B at 1 h, 10 µM [15]: 7 ×10⁻⁶ cm/s
17 | Cc1c(C)c2ccc(OCC3CCN(CCCO)CC3)cc2oc1=O | > 500 |  |  | 47.3 |  |  | 29.5 | 0.86 | 47.2 | 6 | half-life at 0.5 µM [11]: > 120 min; Activity (SH-SY5Y): Non-Toxic; IC50 (Cytochrome P450 3A4): > 10000 nM; inhibition at 10 µM (MAO-A): 50%; microsomal CLint at 0.5 µM [12]: < 11.5 µL/min/mg; Activity (HepG2): Non-Toxic; efflux ratio [13]: 1.2; Papp B→A at 1 h, 10 µM [14]: 22 ×10⁻⁶ cm/s; Kd (Albumin): 31700 nM; Papp A→B at 1 h, 10 µM [15]: 19 ×10⁻⁶ cm/s
